Data on 3 molecules can be found in paper PMC9069370, “Integrated Design of a Membrane‐Lytic Peptide‐Based Intravenous Nanotherapeutic Suppresses Triple‐Negative Breast Cancer” (Advanced Science, 2022).

One assay concerns U2OS. It counts as cell-based, human. Particulars: 72 h.
Assay [1] is described as follows: Tryptophan fluorescent binding assay. The following applies: tryptophan fluorescence; 50 µM peptide, lipid titrated 0-5000 µM; phosphate buffered saline 1X, pH 7.4; values as lipid per peptide. The procedure:
50 µM ACP peptides and varied concentrations (concentrations: 0, 25, 50, 100, 150, 200, 250, 500, 1250, and 2500 µM) of POPC or POPC:POPG (3:1 ratio) large unilamellar vesicles were prepared in 10 mM phosphate buffer (pH 7.0). The solutions were measured after 1 h of incubation. Excitation was fixed at 280 nm (slit 9 nm) and emission was collected from 300 to 450 nm (slit 9 nm). The spectra were recorded using Cytation 5 Cell Imaging Multi‐Mode Reader from BioTek and were averaged by three scans.
Lipid Concentration-induced
Name Sequence† 50% Peptide Binding (L/P)
Extended Data Table 3 | Tryptophan binding assay. […]
peptide binding onto liposome. 50 µM peptides were fixed and incubated with titrated lipid (POPC vesicle […]
phosphate buffered saline (1X, pH 7.4). The lipid concentration that causes 50 % peptide binding was determined using tryptophan fluorescent binding assay and the values are shown as lipid per peptide.

For another assay, the system named is HEK293T. Kind of assay: cells. Particulars: 72 h. It counts as cell-based, human.
In the next assay the test system is MCF‐10A. Kind of assay: cells. It counts as cell-based, human. The following applies: 72 h. An excerpt:
(§1) […], and MCF-10A cells were maintained in MEGM with supplements and growth factors bovine pituitary extract, hydrocortisone, human epidermal growth factor, insulin, and gentamicin/amphotericin-B.

Another assay concerns HMLER‐shEcad. Kind of assay: cells. Particulars: 72 h. It counts as cell-based, human.
Description: as §1

For a further assay, the system named is HMLER. Kind of assay: cells. Particulars: 72 h. The assay is classed as cell-based, human.
Description: as §1

The nature of assay [2]: ANTS/DPX liposome leakage assay. Particulars: for Peptide Concentration-induced 50 % ANTS/DPX leakage at pH 4.8 (L/P), 3POPC/1POPG Vesicle / Peptide Concentration-induced 50 % ANTS/DPX leakage at pH 4.8 (L/P), POPC Vesicle / Peptide Concentration-induced 50 % ANTS/DPX leakage at pH 7.4 (L/P), 3POPC/1POPG Vesicle / Peptide Concentration-induced 50 % ANTS/DPX leakage at pH 7.4 (L/P), POPC Vesicle: 0.5 mM vesicles, peptide 0-20 µM, 3 h incubation, lipid per peptide; for Peptide Concentration-induced 50 % ANTS/DPX leakage at pH 4.8 (L/P), 3POPC/1POPG Vesicle / Peptide Concentration-induced 50 % ANTS/DPX leakage at pH 4.8 (L/P), POPC Vesicle: HCl-adjusted PBS 1X pH 4.8; for Peptide Concentration-induced 50 % ANTS/DPX leakage at pH 7.4 (L/P), 3POPC/1POPG Vesicle / Peptide Concentration-induced 50 % ANTS/DPX leakage at pH 7.4 (L/P), POPC Vesicle: PBS 1X pH 7.4, high ratio = more potent. As for the experimental part: Vesicle preparation: 5 mM ANTS and 12.5 mM DPX were entrapped in 0.1 µm diameter extruded vesicles (either POPC or POPC/POPG at a ratio of 3:1) with lipids. Gel filtration chromatography of Sephadex G‐100 was used to remove external free ANTS/DPX from LUVs with entrapped contents. LUVs were diluted to 0.5 mM and used to measure the leakage activity by the addition of aliquots of ACPs. Leakage was measured after 3 h incubation. 10% Triton was used as the positive control to measure the maximum leakage of the vesicle. Fluorescence emission spectra were recorded using excitation and emission wavelength of 350 and 510 nm for ANTS/DPX using a BioTek Synergy H1 Hybrid Multi‐Mode Reader.
Peptide Concentration-induced Peptide Concentration-induced
Name Sequence† 50 % ANTS/DPX leakage 50 % ANTS/DPX leakage at pH 7.4 (L/P) at pH 4.8 (L/P)
POPC Vesicle 3POPC/1POPG Vesicle POPC Vesicle 3POPC/1POPG Vesicle […]
Extended Data Table 4 | Peptide concentration-induced 50 % ANTS/DPX liposome leakage. 0.5 mM POPC and 3POPC/1POPG vesicles were fixed and incubated with titrated peptide concentration (0, 0.02, […]
hydrochloric acid-adjusted phoshate buffered saline (1X, pH 4.8). The values are shown as lipid per

Peptide text beside a SMILES is read from it.

`CC(C)C[C@H](NC(=O)CN)C(=O)N[C@@H](CC(C)C)C(=O)N[C@@H](Cc1c[nH]cn1)C(=O)N[C@@H](CC(C)C)C(=O)N[C@@H](CC(C)C)C(=O)N[C@@H](CCCCN)C(=O)N[C@@H](CC(C)C)C(=O)N[C@@H](CC(C)C)C(=O)N[C@@H](CC(C)C)C(=O)N[C@@H](Cc1c[nH]cn1)C(=O)N[C@@H](C)C(=O)N[C@@H](C)C(=O)NCC(=O)N[C@@H](Cc1c[nH]c2ccccc12)C(N)=O` [HKH] (H-GLLHLLKLLLHAAGW-NH2) yielded a 50% inhibitory concentration (IC50) with U2OS of 18.9 ± 1.24 µM. Besides, in assay [1], the “Lipid Concentration-induced 50% Peptide Binding (L/P), 3POPC/1POPG Vesicle” value is 0.38 L/P and the “Lipid Concentration-induced 50% Peptide Binding (L/P), POPC Vesicle” value came to 0.18 L/P. Half-maximal inhibition in the assay on HEK293T (IC50) was put at 5.7 ± 0.99 µM. Half-maximal inhibition in the assay with MCF‐10A (IC50) required 6.1 µM. The molecule also came in with an IC50 in the assay with HMLER‐shEcad of 3.1 ± 0.57 µM. Besides, in the assay on HMLER, the IC50 was 3.45 ± 0.21 µM. For the same molecule, in assay [2], the “Peptide Concentration-induced 50 % ANTS/DPX leakage at pH 4.8 (L/P), 3POPC/1POPG Vesicle” value worked out at 47 L/P; the “Peptide Concentration-induced 50 % ANTS/DPX leakage at pH 4.8 (L/P), POPC Vesicle” value is on record as 193 L/P; the “Peptide Concentration-induced 50 % ANTS/DPX leakage at pH 7.4 (L/P), 3POPC/1POPG Vesicle” value was 274 L/P; the “Peptide Concentration-induced 50 % ANTS/DPX leakage at pH 7.4 (L/P), POPC Vesicle” value amounted to 1077 L/P.

As to `CC(C)C[C@H](NC(=O)CN)C(=O)N[C@@H](CC(C)C)C(=O)N[C@@H](Cc1c[nH]cn1)C(=O)N[C@@H](CC(C)C)C(=O)N[C@@H](CC(C)C)C(=O)N[C@@H](CCC(=O)O)C(=O)N[C@@H](CC(C)C)C(=O)N[C@@H](CC(C)C)C(=O)N[C@@H](CC(C)C)C(=O)N[C@@H](CCC(=O)O)C(=O)N[C@@H](C)C(=O)N[C@@H](C)C(=O)NCC(=O)N[C@@H](Cc1c[nH]c2ccccc12)C(N)=O` [HEE] (H-GLLHLLELLLEAAGW-NH2), the IC50 in the assay on U2OS worked out at 47.5 ± 11 µM. Moreover, in assay [1], the “Lipid Concentration-induced 50% Peptide Binding (L/P), 3POPC/1POPG Vesicle” value worked out at 0.50 L/P and the “Lipid Concentration-induced 50% Peptide Binding (L/P), POPC Vesicle” value amounted to 0.58 L/P. The IC50 in the assay with HEK293T is 10.2 ± 0.2 µM. The molecule further gave an IC50 in the assay with MCF‐10A of 58 ± 41 µM. Also, in the assay on HMLER‐shEcad, the IC50 was determined as 4.95 ± 0.49 µM. In the assay on HMLER, the IC50 amounted to 6.5 ± 0.71 µM. In addition, in assay [2], the “Peptide Concentration-induced 50 % ANTS/DPX leakage at pH 4.8 (L/P), 3POPC/1POPG Vesicle” value was determined as 122 L/P; the “Peptide Concentration-induced 50 % ANTS/DPX leakage at pH 4.8 (L/P), POPC Vesicle” value came out at 100 L/P; the “Peptide Concentration-induced 50 % ANTS/DPX leakage at pH 7.4 (L/P), 3POPC/1POPG Vesicle” value was 792 L/P; the “Peptide Concentration-induced 50 % ANTS/DPX leakage at pH 7.4 (L/P), POPC Vesicle” value was determined as 876 L/P.

In the case of `CC(C)C[C@H](NC(=O)CN)C(=O)N[C@@H](CC(C)C)C(=O)N[C@@H](Cc1c[nH]cn1)C(=O)N[C@@H](CC(C)C)C(=O)N[C@@H](CC(C)C)C(=O)N[C@@H](CCC(=O)O)C(=O)N[C@@H](CC(C)C)C(=O)N[C@@H](CC(C)C)C(=O)N[C@@H](CC(C)C)C(=O)N[C@@H](Cc1c[nH]cn1)C(=O)N[C@@H](C)C(=O)N[C@@H](C)C(=O)NCC(=O)N[C@@H](Cc1c[nH]c2ccccc12)C(N)=O` [HEH] (H-GLLHLLELLLHAAGW-NH2), in the assay with U2OS, 106 ± 14 µM corresponded to half-maximal inhibition (IC50). Moreover, in assay [1], the “Lipid Concentration-induced 50% Peptide Binding (L/P), 3POPC/1POPG Vesicle” value turned out to be 3.50 L/P and the “Lipid Concentration-induced 50% Peptide Binding (L/P), POPC Vesicle” value was 0.88 L/P. This molecule displayed an IC50 with HEK293T of 8.8 ± 1.7 µM. For the same molecule, the IC50 in the assay on MCF‐10A is > 200 µM. In the assay on HMLER‐shEcad, this molecule yielded an IC50 of 11 ± 1.06 µM. In the assay on HMLER, this molecule showed an IC50 of 28.6 ± 10.8 µM. In assay [2], the “Peptide Concentration-induced 50 % ANTS/DPX leakage at pH 4.8 (L/P), 3POPC/1POPG Vesicle” value is 24 L/P; the “Peptide Concentration-induced 50 % ANTS/DPX leakage at pH 4.8 (L/P), POPC Vesicle” value came to 173 L/P; the “Peptide Concentration-induced 50 % ANTS/DPX leakage at pH 7.4 (L/P), 3POPC/1POPG Vesicle” value came out at 505 L/P; the “Peptide Concentration-induced 50 % ANTS/DPX leakage at pH 7.4 (L/P), POPC Vesicle” value was determined as 995 L/P. In addition, the “change of ANTS/DPX dye leakage / liposome selectivity at pH 4.8” value in assay [2] (pH = 4.8 compared with physiological pH, anionic versus neutral liposomes) is “increased selectivity for neutral bilayers”.
